Measured values from patent US8686028B2, “Substituted benzfurochromenes and related compounds for the prevention and treatment of bone related disorders” (Council of Scientific & Industrial Research, priority 2008, dated 2014).

How the values were obtained:
Calvarial osteoblasts = assay: Alkaline phosphatase (ALP) activity for osteoblast differentiation, calvarial osteoblasts; assay type: cell-based, rat; details: osteoblasts, concentrations not given
Procedure: (§1) Neonatal rat calvarial cell cultures are prepared as described previously (Endocrinology 145:3451) using slight modification. Briefly, for primary osteoblast cell cultures, frontal and parietal bones from Sprague-Dawley rat neonates (1-3 day old) are digested in 0.1% collagenase/0.1% dispase in α-MEM to obtain 5 sequential digests. The second through fifth digests are combined and grown to confluence at 37° C. and 5% CO2 in air in α-MEM, supplemented with 10% fetal bovine serum (FBS), 2 mM glutamine, 100 U/ml penicillin-streptomycin, Non-essential amino acid solution and sodium pyruvate.
70 to 80% confluent Calvarial osteoblasts were treated with μM S006-1709 for 48 h in the presence of ascorbate and glycerophosphate. At the end of incubation period, total ALP activity was measured with a method using p-nitrophenylphosphate (PNPP) as substrate. The reaction mixture contained diethanolamine buffer (1 mol/L, pH 9.8), 0.5 mmol/L MgCl2.6H2O, and 10 mmol/L PNPP. ALP activity was measured by taking OD of the amount of colored product formed by the dephosphorylation of PNPP at 405 nm. […] In addition, the effect of S006-1709 on mineralization of calvarial osteoblasts was studied.
We then studied its effect in osteoblast differentiation in both calvarial and bone marrow osteoblasts. Confluent calvarial osteoblasts (70 to 80%) were treated with S006-1710 for 48 h in the presence of ascorbate and glycerophosphate at concentrations ranging from 10^−16M to 10^−6M. At the end of incubation period, total ALP activity was measured with the same method used previously using p-nitrophenylphosphate (PNPP) as substrate.
70 to 80% confluent Calvarial osteoblasts were treated with S007-1351 for 48 h in the presence of ascorbate and glycerophosphate. At the end of incubation period, total ALP activity was measured with a method using p-nitrophenylphosphate (PNPP) as substrate. The reaction mixture contained diethanolamine buffer (1 mol/L, pH 9.8), 0.5 mmol/L MgCl2.6H2O, and 10 mmol/L PNPP. ALP activity was measured by taking OD of the amount of colored product formed by the dephosphorylation of PNPP at 405 nm.
70 to 80% confluent calvarial osteoblasts were treated with S007-1352 for 48 h in the presence of ascorbate and glycerophosphate at concentrations ranging from 10^−12M to 10^−6 M. At the end of incubation period, total ALP activity was measured with the same method used previously using p-nitrophenylphosphate (PNPP) as substrate.

[1] = tested on: Calvarial osteoblast cells; assay: MTT cell proliferation assay; assay type: cell-based, rat; details: 10^−10 M to 10^−6M, 24 hrs
Procedure: as §1
MTT [3-(4,5-dimethylthiazol-2-yl)-2,5-diphenyltetrazolium bromide] assay, first described by Mosmann in 1983, is based on the ability of a mitochondrial dehydrogenase enzyme from viable cells to cleave the tetrazolium rings of the pale yellow MTT and form a dark blue formazan crystals which is largely impermeable to cell membranes, thus resulting in its accumulation within healthy cells. Solubilisation of the cells by the addition of a detergent results in the liberation of the crystals which are solubilized. The number of surviving cells is directly proportional to the level of the formazan product created. The color can then be quantified using a simple colorimetric assay. The results can be read on a multiwell scanning spectrophotometer (Mosmann T. Rapid colorimetric assay for cellular growth and survival: application to proliferation and cytotoxicity assays. J Immunol Methods. 1983 Dec. 16; 65(1-2):55-63).
Calvarial osteoblast cells plated at a density of 2.0×10^3 cells/200 ul in 96 wells plates. Cells were grown to 60% confluency and then treated with following compounds S006-1709, S006-1710, 5006-1711, S006-1713 and; S006-1714 at concentrations ranging from 10^−10 M to 10^−6M for 24 hrs. After treatment media was removed and 10 mM MTT was added solution in phenol red free DMEM media. After an incubation of 4 hrs the MTT solution was removed. Blue colored crystals were formed which were dissolved in DMSO and absorbance was read on ELISA plate reader at 570 nm wavelength.

[2] = tested on: ovariectomized immature female rats; assay: Estrogenicity, uterine fresh weight in ovariectomized immature female rats; assay type: in vivo, rat; details: reference standard, 0.01 mg/Kg, three consecutive days; vehicle 16.46
Procedure: 21 day old immature female rats (25-30 grams) were ovariectomized and given 7 days post-operative rest. Thereafter they were treated orally with the test agent (10 mg/Kg body weight) or with vehicle or Ethynyl estradiol, the reference standard for three consecutive days. For anti-estrogenicity, other than the test chemical, ethynyl estradiol (0.01 mg/kg) was given at 15 minutes interval before the test chemical. Autopsy was done 24 h after last treatment and uterine fresh weight was taken.

| Structure (SMILES) | melting point [°C] | stimulation of ALP activity (Calvarial osteoblasts) | effect on osteoblast proliferation (MTT) [1] | Estrogenic Activity (uterine fresh weight) [2] |
| --- | --- | --- | --- | --- |
| COc1ccccc1-c1coc2cc(O)c(Cl)cc2c1=O [Compound S007-1355, 6-Chloro-7-hydroxy-3-(2-methoxy-phenyl)-chromen-4-one] | 228 to 230 | non-significant |  |  |
| O=c1c(-c2ccccc2O)coc2cc(O)c(Cl)cc12 [Compound S007-1354, 6-Chloro-7-hydroxy-3-(2-hydroxy-phenyl)-chromen-4-one] | > 250 | non-significant |  |  |
| COc1ccc(-c2coc3cc(O)ccc3c2=O)c(OC)c1 [Compound S006-1713, 3-(2,4-Dimethoxy-phenyl)-7-hydroxy-chromen-4-one] |  | non-significant | did not have any effect |  |
| COc1ccc(-c2coc3cc(O)ccc3c2=O)c(O)c1 [Compound S006-1714, 7-Hydroxy-3-(2-hydroxy-4-methoxy-phenyl)-chromen-4-one] | 210 to 212 | non-significant | did not have any effect |  |
| CC(C)Oc1ccc2c(c1)OCC1c3ccccc3OC21 (stereo not drawn) [Compound S-008-0398, 3-Isopropoxy-6a,11a-dihydro-6H-benzofuro[3,2-c]chromene] | 96 to 98 |  |  |  |
| Cc1c(O)ccc2c1OCC1c3ccccc3OC21 (stereo not drawn) [Compound S007-1499, 4-Methyl-6a,11a-dihydro-6H-benzo[4,5]furo[3,2-c]chromen-3-ol] | 160 to 162 | non-significant |  |  |
| c1ccc2c(c1)OC1c3ccc(OCCN4CCCCC4)cc3OCC21 (stereo not drawn) [Compound S-008-0399, 1-(2-(6a,11a-Dihydro-6H-benzofuro[3,2-c]chromen-3-yloxy)ethyl)piperidine] | 202 to 204 |  |  |  |
| C#C[C@]1(O)CC[C@H]2[C@@H]3CCc4cc(O)ccc4[C@H]3CC[C@@]21C [Ethnyl Estradiol, Ethynyl estradiol, reference compound] |  |  |  | 98.3 |
| Cc1c(OCC#N)ccc2c1OCC1c3ccccc3OC21 (stereo not drawn) [Compound S007-1501, (4-Methyl-6a,11a-dihydro-6H-benzo[4,5]furo[3,2-e]chromen-3-yloxy)-acetonitrile] |  | non-significant |  |  |
| Cc1c(O)ccc2c(=O)c(-c3ccccc3O)coc12 [Compound S007-1498, 7-Hydroxy-3-(2-hydroxy-phenyl)-8-methyl-chromen-4-one] | 196 to 198 | non-significant |  |  |
| C=CCOc1ccc2c(c1)OCC1c3ccccc3OC21 (stereo not drawn) [Compound S-008-0625, 3-(Allyloxy)-6a,11a-dihydro-6H-benzofuro[3,2-c]chromene] | 72 to 74 |  |  |  |
